# Where a name gives a salt, the structure may show the parent alone. Read-outs that look alike come from different tables or passages of the source.
# What was measured:
# [1] = system: NCI-H292 lung cancer cells; assay: FDA drug screening, complete media vs cholesterol-free media without statin (TABLE 1); type: cell-based, human
# [2] = system: NCI-H292 lung cancer cells; assay: FDA drug screening, complete media vs cholesterol-free media with simvastatin (TABLE 2); type: cell-based, human
# [3] = Complete minus Cholesterol-free, >0 enhanced anti-cancer activity, about 0 neutral, <0 antagonist
# [4] = NCI-H292 cells, cholesterol-free media without statin, FDA drug library screen
# [5] = NCI-H292 cells, complete media, FDA drug library screen
# [6] = NCI-H292 cells, cholesterol-free media with simvastatin 0.04 μM, cell growth value in FDA drug screen
# [7] = NCI-H292 cells, complete media, cell growth value in FDA drug screen
# [8] = complete media minus cholesterol-free media + simvastatin, >0 enhanced anti-cancer activity, about 0 neutral, <0 antagonist
# [9] = NCI-H292 cells, FDA drug library screen, cholesterol-free media with simvastatin 0.04 μM
# [10] = NCI-H292 cells, FDA drug library screen, complete media
# [11] = complete media vs cholesterol-free media + simvastatin (0.04 μM), >0 enhanced anti-cancer activity, about 0 neutral, <0 antagonist
# [12] = NCI-H292 cells, cholesterol-free media without statin
# [13] = NCI-H292 cells, cholesterol-free media with simvastatin 0.04 μM, FDA drug library screen (TABLE 2)
# [14] = NCI-H292 cells, complete media, FDA drug library screen (TABLE 2)
# [15] = complete media minus cholesterol-free media + simvastatin (0.04 μM), >0 enhanced anti-cancer activity, about 0 neutral, <0 antagonist
# [16] = Complete minus Cholesterol-free, greater than 0 enhanced anti-cancer activity, about 0 neutral, below 0 antagonist
# [17] = NCI-H292 cells, FDA drug library screen, cholesterol-free media without statin
# [18] = NCI-H292 cells, drug in cholesterol-free media with simvastatin 0.04 μM
# [19] = NCI-H292 cells, drug in complete media
# [20] = Complete minus Cholesterol-free, greater than 0 enhanced anti-cancer activity, about 0 neutral, below 0 antagonists
# [21] = NCI-H292 cells in cholesterol-free media without statin
# [22] = NCI-H292 cells in complete media
smiles,measurement,setting,value
Cc1ccc(C(=O)C(C)CN2CCCCC2)cc1 (stereo not drawn) [Tolperisone (hydrochloride)],Difference,[1]; [3],0.07
same,Cholesterol-free,[1]; [4],1.37
same,Complete,[1]; [5],1.436
same,Cholesterol-free media + simvastatin (0.04 μM),[2]; [6],0.9156
same,Complete Media,[2]; [7],0.9664
same,Difference,[2]; [8],0.05
Cc1ccc(O)c([C@H](CCN(C(C)C)C(C)C)c2ccccc2)c1 [Tolterodine],Cholesterol-free,[1],0.9758
same,Complete,[1],1.051
same,Difference,[1],0.08
same,Cholesterol-free media + simvastatin (0.04 μM),[2],1.169
same,Complete Media,[2],0.8561
same,Difference,[2],−0.31
Cc1cc(-n2c(=O)[nH]c(=O)n(C)c2=O)ccc1Oc1ccc(SC(F)(F)F)cc1 [Toltrazuril],Difference,[1]; [3],−0.07
same,Cholesterol-free,[1]; [4],0.9718
same,Complete,[1]; [5],0.9012
same,Cholesterol-free media + simvastatin (0.04 μM),[2]; [9],0.9815
same,Complete Media,[2]; [10],0.8466
same,Difference,[2]; [11],−0.13
Cc1ccccc1C(=O)Nc1ccc(C(=O)N2CCCC(O)c3cc(Cl)ccc32)c(C)c1 (stereo not drawn) [Tolvaptan],Difference,[1]; [3],−0.06
same,Cholesterol-free,[1]; [4],0.8732
same,Complete,[1]; [5],0.8126
same,Cholesterol-free media + simvastatin (0.04 μM),"[2]; NCI-H292 cells, FDA library drug in cholesterol-free media with simvastatin 0.04 μM",2.102
same,Complete Media,"[2]; NCI-H292 cells, FDA library drug in complete media",1.367
same,Difference,[2]; [11],−0.73
CC1(C)O[C@@H]2[C@@H](CO[C@@]3(COS(N)(=O)=O)OC(C)(C)O[C@@H]23)O1 [Topiramate],Cholesterol-free,[1]; [12],1.406
same,Complete,"[1]; NCI-H292 cells, complete media",0.9724
same,Difference,"[1]; complete vs cholesterol-free media, greater than 0 enhanced anti-cancer activity, about 0 neutral, below 0 antagonists",−0.43
same,Cholesterol-free media + simvastatin (0.04 μM),[2]; [6],1.666
same,Complete Media,[2]; [7],1.706
same,Difference,[2]; [8],0.04
N#Cc1cc(-c2n[nH]c(-c3ccncc3)n2)ccn1 [Topiroxostat],Cholesterol-free,[1]; [4],0.764
same,Complete,[1]; [5],1.603
same,Difference,"[1]; complete vs cholesterol-free media, >0 enhanced anti-cancer activity, about 0 neutral, <0 antagonist",0.84
same,Cholesterol-free media + simvastatin (0.04 μM),[2]; [13],1.544
same,Complete Media,[2]; [14],1.543
same,Difference,[2]; [15],0.00
CC[C@@]1(O)C(=O)OCc2c1cc1n(c2=O)Cc2cc3c(CN(C)C)c(O)ccc3nc2-1 [Topotecan (Hydrochloride)],Difference,[1]; [3],−0.03
same,Cholesterol-free,[1]; [4],0.05524
same,Complete,[1]; [5],0.02609
same,Cholesterol-free media + simvastatin (0.04 μM),[2]; [9],0.1355
same,Complete Media,[2]; [10],0.04638
same,Difference,[2]; [11],−0.09
Cc1cccc(Nc2ccncc2S(=O)(=O)NC(=O)NC(C)C)c1 [Torsemide],Difference,[1]; [16],−0.16
same,Cholesterol-free,[1]; [17],1.07
same,Complete,[1]; [10],0.914
same,Cholesterol-free media + simvastatin (0.04 μM),[2]; [13],1.055
same,Complete Media,[2]; [14],0.9909
same,Difference,[2]; [15],−0.06
CC(=O)Nc1cccc(-n2c(=O)n(C3CC3)c(=O)c3c(Nc4ccc(I)cc4F)n(C)c(=O)c(C)c32)c1 [Trametinib (DMSO solvate)],Difference,[1]; [3],0.00
same,Cholesterol-free,[1]; [4],0.2835
same,Complete,[1]; [5],0.2824
same,Cholesterol-free media + simvastatin (0.04 μM),[2]; [9],0.4848
same,Complete Media,[2]; [10],0.3787
same,Difference,[2]; [11],−0.11
CC(=O)Nc1cccc(-n2c(=O)n(C3CC3)c(=O)c3c(Nc4ccc(I)cc4F)n(C)c(=O)c(C)c32)c1 [Trametinib],Difference,[1]; [3],−0.06
same,Cholesterol-free,[1]; [4],0.4164
same,Complete,[1]; [5],0.3595
same,Cholesterol-free media + simvastatin (0.04 μM),[2]; [6],0.2423
same,Complete Media,[2]; [7],0.2586
same,Difference,[2]; [8],0.02
CCOC(=O)[C@H](CCc1ccccc1)N[C@@H](C)C(=O)N1[C@H](C(=O)O)C[C@H]2CCCC[C@@H]21 [Trandolapril],Difference,[1]; [16],−0.10
same,Cholesterol-free,[1]; [17],1.068
same,Complete,[1]; [10],0.9671
same,Cholesterol-free media + simvastatin (0.04 μM),[2]; [18],1.441
same,Complete Media,[2]; [19],1.221
same,Difference,[2]; [11],−0.22
NC[C@H]1CC[C@H](C(=O)O)CC1 [Tranexamic acid],Difference,[1]; [20],−0.77
same,Cholesterol-free,[1]; [21],2.288
same,Complete,[1]; [22],1.522
same,Cholesterol-free media + simvastatin (0.04 μM),[2]; [18],1.894
same,Complete Media,[2]; [19],1.678
same,Difference,[2]; [11],−0.22
COc1ccc(/C=C/C(=O)Nc2ccccc2C(=O)O)cc1OC [Tranilast],Difference,[1]; [3],−0.27
same,Cholesterol-free,[1]; [12],0.8255
same,Complete,"[1]; NCI-H292 cells, complete media",0.5543
same,Cholesterol-free media + simvastatin (0.04 μM),[2]; [18],1.221
same,Complete Media,[2]; [19],1.04
same,Difference,[2]; [11],−0.18
N[C@@H]1C[C@H]1c1ccccc1.N[C@@H]1C[C@H]1c1ccccc1.O=S(=O)(O)O [Tranylcypromine (hemisulfate)],Cholesterol-free,[1],1.175
same,Complete,[1],0.8249
same,Difference,[1],−0.35
same,Cholesterol-free media + simvastatin (0.04 μM),[2],0.8773
same,Complete Media,[2],0.7026
same,Difference,[2],−0.17
CC(C)OC(=O)CCC/C=C\C[C@@H]1[C@@H](/C=C/[C@@H](O)COc2cccc(C(F)(F)F)c2)[C@H](O)C[C@@H]1O [Travoprost],Difference,[1]; [20],−1.01
same,Cholesterol-free,[1]; [21],1.92
same,Complete,[1]; [22],0.9075
same,Cholesterol-free media + simvastatin (0.04 μM),[2]; [13],0.9352
same,Complete Media,[2]; [14],0.8818
same,Difference,[2]; [15],−0.05
